Source: patent US20100297765A1 (priority 2006, published 2010)

Legend:
[1] = system: pro-inflammatory cytokines (IL-1, IL-6, IL-8, TNF-alpha, INF-gamma); assay: CBA flux cytometry dosage of cytokine secretion in culture supernatants of UV-irradiated reconstructed skin; type: cell-based, human; conditions: for efficiency on cell viability and synthesis of pro-inflammatory interleukins after solar UV stress: both parameters (cell mortality, pro-inflammatory molecules), UV-irradiated reconstructed skin; for TNFβ / IL1β / IL8 / IL6: reconstructed skin UV irradiated + formulation with 3% active, 10 days; for TNFβ: control 53, UV irradiated 152; for IL1β: control 76, UV irradiated 179; for IL8: control 275, UV irradiated 395; for IL6: control 379, UV irradiated 649
Description: The model was made according to the following protocol: • The reconstructed dermis model containing DCCs, macrophages and endothelial cells was made according to Example 12. • The reconstructed skin model containing LCs was made according to Example 14.

[2] = system: keratinocytes and LCs or fibroblasts and DDC in co-culture; assay: Cytokine secretion in monolayer pluricellular co-culture models under the effect of an active ingredient; type: cell-based, human; conditions: retinol 0.05% final concentration in culture medium for 3 days
Description: (§1) 1 to 2.10^6 human keratinocytes and 1 to 2.10^6 human monocytes (obtained according to Example 1 or 2) are jointly grown in a nutritious medium, for example of the K-SFM type, in culture dishes, for example of the 6-well plate type. The joint culture is maintained for 6 days in a nutritious medium, for example of the K-SFM type, without adding any exogenous cytokine.
as §1, with “fibroblasts” for “keratinocytes”, “FBM” for “K-SFM”, “dishes” for “dishes,”
In order to assess the irritating, sensitizing, allergizing potency, and to estimate a possible pro- or anti-inflammatory activity of an active ingredient intended for human skin, we quantify in the culture supernatants, secretion of cytokines, for example, IL-1, IL-6, IL-8, IL-10, TNF-[…] INF[…], according to the following protocol: • The model is made according to the protocol described in Example 3 or 4. • Retinol is then added into the culture medium at a final concentration of 0.05% for 3 days. • The culture supernatants are then recovered and analyzed.

| Compound | efficiency on cell viability and synthesis of pro-inflammatory interleukins after solar UV stress [1] | TNFβ [1] | IL1β [1] | IL8 [1] | IL6 [1] | secretion of pro-inflammatory cytokines [2] |
| --- | --- | --- | --- | --- | --- | --- |
| Hesperitine Laurate [Flavagrum] | demonstrated efficiency with a possible tendency to restore the reference level | 105 pg/mL | 125 pg/mL | 312 pg/mL | 452 pg/mL |  |
| Quercitine Caprylate [Flavenger] | demonstrated efficiency with a possible tendency to restore the reference level | 89 pg/mL | 97 pg/mL | 294 pg/mL | 426 pg/mL |  |
| CC1=C(/C=C/C(C)=C/C=C/C(C)=C/CO)C(C)(C)CCC1 [retinol, Retinol] |  |  |  |  |  | stimulation of secretion of pro-inflammatory cytokines |
